The values below come from publication PMC8949187, “Study of Structure–Activity Relationships of the Marine Alkaloid Fascaplysin and Its Derivatives as Potent Anticancer Agents” (Marine Drugs, 2022).

One test relates to PC-3 cells. Briefly: MTT assay, PC-3 cells. As to conditions: Homo sapiens, PC-3; prostate cancer cells; 48 h of treatment; mean ± SD. The class given is cell-based, human. The gist of the method:
(§1)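 Seed 6 × 10^3 cells/well, overnight; swap to fresh 10% FBS/RPMI + compound, 48 h, 37 °C/5% CO2; MTT 2–4 h; DMSO solubilisation; absorbance; IC50 vs vehicle.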

A further test relates to HEK-293 cells. The test is described as follows: MTT assay, HEK-293 cells. Format: cell-based, human. To be noted: Homo sapiens, HEK293; non-cancer cells; 48 h of treatment; mean ± SD. The gist of the method: as §1
Test [1] deals with non-cancer cell lines versus cancer cell lines. Briefly: Selectivity index from MTT IC50s. The class given is cell-based, human. To be noted: for Selectivity index, IC50 (non-prostate) / IC50 (prostate): mean IC50 MRC-9 and HEK-293 versus mean IC50 prostate cancer cell lines plus PNT2; for Selectivity index, IC50 (non-prostate) / IC50 (prostate) / Selectivity index, IC50 (non-cancer) / IC50 (cancer): MTT; for Selectivity index, IC50 (non-cancer) / IC50 (cancer): mean IC50 non-cancer cell lines versus mean IC50 cancer cell lines.

In test [2] the test system is prostate cancer cell lines (PC-3, 22Rv1, DU145 and LNCaP). Briefly: MTT assay, mean over four prostate cancer cell lines. Format: cell-based. As to conditions: Homo sapiens; mean of MTT IC50 in PC-3, 22Rv1, DU145 and LNCaP; from Table S1 values; read-out: mean IC50 in cancer cells. The gist of the method:
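Cells were treated for 48 h in 10% FBS/RPMI, then MTT was added for 2-4 h, dissolved in DMSO and read. IC50 was set against solvent-treated controls and averaged across PC-3, 22Rv1, DU145 and LNCaP. Selectivity index was mean non-cancer IC50 over mean cancer IC50.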

Another test deals with DU145 cells. Briefly: MTT assay, DU145 cells. As to conditions: Homo sapiens, DU-145; prostate cancer cells; 48 h of treatment; mean ± SD. The class given is cell-based, human. Summed up: as §1
A further test relates to LNCaP cells. Briefly: MTT assay, LNCaP cells. The class given is cell-based, human. As to conditions: Homo sapiens, LNCaP; prostate cancer cells; 48 h of treatment; mean ± SD. Summed up: as §1
Another test deals with PNT2 cells. Briefly: MTT assay, PNT2 cells. The class given is cell-based, human. To be noted: Homo sapiens, PNT2; non-cancer cells; 48 h of treatment; mean ± SD. Summed up: as §1
For test [3], the system named is double-stranded calf thymus DNA. Briefly: Thiazole orange displacement (DNA intercalation) assay. Format: binding. To be noted: 1 µM calf thymus DNA base pairs, 2 µM thiazole orange; 7 min at room temperature; mean ± SD. As for the experimental part:
DNA intercalation activity of the compounds was calculated as an ability to displace thiazole orange (TO) from the double-stranded DNA. For this experiment, a mixture (100 µL) containing 1 µM of double-stranded calf thymus DNA (recalculated as a concentration of base pairs) and 2 µM of thiazole orange (TO) solved in water was prepared. Then, the investigated compounds were added up to final concentrations of 0.39–25 µM; DMSO concentration in the samples was <0.02%. Propidium iodide (PI, positive control) was added up to final concentrations of 0.039–2.5 uM. After 7 min of incubation at room temperature, TO fluorescence was monitored using a multimodal plate reader TECAN Spark (Tecan Group Ltd., Männedorf Switzerland) at the excitation λ = 480 nm; fluorescence was recorded at λ = 530 nm. The bandwidth was 10 nm. The concentration of the drug that caused a decrease in TO fluorescence by 50% (EC50) was determined by approximating the experimental data using a non-linear regression algorithm and calculated using the GraphPad Prism software v.9.1.1 (GraphPad Software, San Diego, CA, USA).

For test [4], the system named is 22Rv1 cells. Briefly: DNA fragmentation (apoptosis, sub-G1), flow cytometry with PI staining. Format: cell-based, human. To be noted: treated at IC50 (MTT assay) for 48 h, mean ± SD. The gist of the method: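 After overnight pre-incubation, cells were exposed to compounds for 48 h, then trypsinised, fixed in 70% EtOH and PI-stained for flow cytometry. Cell-cycle phase distribution was quantified, and the sub-G1 population with fragmented DNA was scored as apoptotic.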

The test system of test [5] is 22Rv1 cells. Briefly: MTT assay, 22Rv1 cells. The class given is cell-based, human. As to conditions: Homo sapiens, 22Rv1; prostate cancer cells; 48 h of treatment; mean ± SD. Summed up: as §1
The subject of test [6] is 22Rv1 cells. Briefly: Cell cycle progression, flow cytometry with PI staining. Format: cell-based, human. To be noted: treated at IC50 (MTT assay) for 48 h. As for the experimental part: The effects on cell cycle progression and DNA fragmentation were analyzed by flow cytometry using PI staining, as described before. Cells (2 × 10^5 cells/well) were pre-incubated overnight in 6-well plates and then treated with the investigated drugs in fresh culture media (2 mL/well) for 48 h. Cells were harvested by trypsinization, fixed in 70% EtOH, stained with PI solution and analyzed by FACS Calibur (BD Bioscience, San Jose, CA, USA). The results were quantified using BD Bioscience Cell Quest Pro v.5.2.1. software (BD Bioscience). The cells appearing as a sub-G1 population (containing fragmented DNA) were considered to be apoptotic.

In a further test the test system is MRC-9 cells. The test is described as follows: MTT assay, MRC-9 cells. The class given is cell-based, human. To be noted: Homo sapiens, MRC9; non-cancer cells; 48 h of treatment; mean ± SD. Summed up: as §1
The subject of test [7] is 22Rv1 cells. The test is described as follows: Trypan blue-based viability assay. Format: cell-based, human. To be noted: Homo sapiens, 48 h of treatment, mean ± SD, read-out: IC50, trypan blue staining assay. The gist of the method: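 Cells were seeded at 0.2 × 10^6 per well, left overnight, then treated with drugs at the chosen concentrations for 48 h. After trypsinisation and trypan blue staining, automated counting scored unstained cells as viable and stained cells as dead.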

The next test concerns VEGFR3. Set-up: method as in PMID 28961193. As to conditions: cited from earlier work.
A further test relates to tumor growth. Further details: method as in PMID 28961193, PMID 25561006. As to conditions: various in vivo models; cited from earlier work.
The test system of a further test is VEGFR2. Further details: method as in PMID 28961193. As to conditions: cited from earlier work.
The test system of the next test is TRKA. Further details: method as in PMID 28961193. As to conditions: cited from earlier work.

The structures appear in SMILES notation. A value given as a limit tells only on which side of the number the result lay.

As for `O=C1c2ccc(Br)cc2-[n+]2ccc3c([nH]c4cccc(Br)c43)c21.[Cl-]` [Compound 9, 12,13-dihydro-3,8-dibromo-13-oxopyrido[1,2-a:3,4-b’]diindol-5-ium chloride], the IC50 with PC-3 cells came out at 1390 ± 700 nM; in the test on HEK-293 cells, 580 ± 99 nM; in [2], 570 nM; with DU145 cells, 334 ± 34 nM; with LNCaP cells, 361 ± 85 nM; in the test on PNT2 cells, 369 ± 24 nM. Further, the IC50 with 22Rv1 cells [5] turned out to be 209 ± 72 nM; in the test with MRC-9 cells, 2070 ± 470 nM; with 22Rv1 cells [7] it was 259 ± 94 nM. For the same molecule, the “Selectivity index, IC50 (non-prostate) / IC50 (prostate)” value in test [1] came out at 2.48. The “Selectivity index, IC50 (non-cancer) / IC50 (cancer)” value in test [1] came out at 1.75. Further, in [3], the EC50 stood at 690 ± 20 nM. Moreover, the “% of sub-G1 apoptotic cells (at IC50)” value in the test on 22Rv1 cells [4] was 28.7±3.49%. For the same molecule, in the test on 22Rv1 cells [6], the “Cell cycle arrest (at IC50)” value is recorded as “No”.
Take `O=C1c2ccccc2-[n+]2ccc3c([nH]c4ccc(Br)cc43)c21.[Cl-]` [Compound 6, 12,13-dihydro-9-bromo-13-oxopyrido[1,2-a:3,4-b’]diindol-5-ium chloride]: the IC50 with PC-3 cells was 2780 ± 370 nM; in the test with HEK-293 cells, 2540 ± 1140 nM; in [2], 1880 nM; with DU145 cells, 2240 ± 180 nM; with LNCaP cells, 1410 ± 89 nM; in the test with PNT2 cells, 2450 ± 950 nM. For the same molecule, the IC50 with 22Rv1 cells [5] was found to be 1070 ± 94 nM; in the test on MRC-9 cells, 15500 ± 2500 nM; with 22Rv1 cells [7] it was 2790 ± 223 nM. The “Selectivity index, IC50 (non-prostate) / IC50 (prostate)” value in test [1] is listed as 4.54. The “Selectivity index, IC50 (non-cancer) / IC50 (cancer)” value in [1] came out at 3.65. The EC50 in test [3] is over 25000 nM. The “% of sub-G1 apoptotic cells (at IC50)” value in the test on 22Rv1 cells [4] is reported as 32.38±1%. The “Cell cycle arrest (at IC50)” value in the test with 22Rv1 cells [6] is listed as “No”.
`O=C1c2ccc(Br)cc2-[n+]2ccc3c([nH]c4cc(Br)ccc43)c21` [Compound 8, 3,10-dibromofascaplysin]: the IC50 in the test with PC-3 cells stood at 7280 ± 480 nM; in the test on HEK-293 cells, 540 ± 48 nM; in [2] it was 2520 nM; with DU145 cells, 1510 ± 56 nM; with LNCaP cells it was 593 ± 91 nM; in the test with PNT2 cells, 3490 ± 1010 nM. Further, the IC50 with 22Rv1 cells [5] was 690 ± 19 nM; with MRC-9 cells, over 50000 nM; in the test on 22Rv1 cells [7] it was 5140 ± 220 nM. Also, in test [1] (both SI definitions (Figure 2B,C)), the “Selectivity index (SI), for Figure 2B,C” value is 7–9. This molecule also had an EC50 in [3] of 4380 ± 60 nM. Besides, in the test with 22Rv1 cells [4], the “% of sub-G1 apoptotic cells (at IC50)” value came out at 3.83±0.442%. The “Cell cycle arrest (at IC50)” value with 22Rv1 cells [6] is given as “No”.
For `O=C1c2ccccc2-[n+]2ccc3c([nH]c4ccccc43)c21` [Compound 1, fascaplysin], in the test on VEGFR3, the “concentration inhibiting VEGFR3” value was “lower than 3 µM”. In the test with tumor growth, the “dose at which tumor growth is inhibited” value was 1 to 5 mg/kg. Also, the “Selectivity index, IC50 (non-prostate) / IC50 (prostate)” value in [1] was 1.26. Besides, the “Selectivity index, IC50 (non-cancer) / IC50 (cancer)” value in test [1] amounted to 1.09. Also, the IC50 in test [2] was 550 nM; in the test with MRC-9 cells, 890 ± 46 nM; with 22Rv1 cells [7] it was 335 ± 93 nM. In the test on VEGFR2, the “concentration inhibiting VEGFR2” value was “lower than 3 µM”. Moreover, in test [3], the EC50 came out at 530 ± 10 nM. The “% of sub-G1 apoptotic cells (at IC50)” value with 22Rv1 cells [4] is on record as 11.43±0.843%. In the test on 22Rv1 cells [6], the “Cell cycle arrest (at IC50)” value is on record as “G1-phase arrest”. Further, the “concentration inhibiting TRKA” value in the test with TRKA was “lower than 3 µM”.
